Reference: patent US10822331B2, “Processes for preparing ATR inhibitors” (Vertex Pharmaceuticals Incorporated, priority 2011, dated 2020)

Test system: HCT116 colorectal cancer cells
Assay: Cisplatin sensitization assay (96 h MTS cell viability)
Format: cell-based
Details: concentration of compound required to reduce the IC50 of Cisplatin alone by at least 3-fold, HCT116, 96 h
Experimental: Compounds can be screened for their ability to sensitize HCT116 colorectal cancer cells to Cisplatin using a 96 h cell viability (MTS) assay. […] Compounds and Cisplatin are then both added simultaneously to the cell media in 2-fold serial dilutions from a top final concentration of […] as a full matrix of concentrations in a final cell volume of 200 μl, and the cells are then incubated at 37° C. in 5% CO2. After 96 h, 40 μl of MTS reagent (Promega G358a) is added to each well and the cells are incubated for 1 h at 37° C. in 5% CO2.

Compound	Cisplatin sensitization
[2H]C([2H])(NC)c1ccc(-c2cc(-c3nc(-c4ccc(S(=O)(=O)C(C)C)cc4)cnc3N)on2)cc1 [II-1, 3-[3-[4-[dideuterio(methylamino)methyl]phenyl]isoxazol-5-yl]-5-(4-isopropylsulfonylphenyl)pyrazin-2-amine]	39 nM
[2H]C([2H])([2H])NC([2H])([2H])c1ccc(-c2cc(-c3nc(-c4ccc(S(=O)(=O)C(C)C)cc4)cnc3N)on2)cc1 [II-2, 3-[3-[4-[dideuterio-(trideuteriomethylamino)methyl]phenyl]isoxazol-5-yl]-5-(4-isopropylsulfonylphenyl)pyrazin-2-amine]	29 nM
[2H]C([2H])([2H])NCc1ccc(-c2cc(-c3nc(-c4ccc(S(=O)(=O)C(C)C)cc4)cnc3N)on2)cc1 [II-3, 5-(4-isopropylsulfonylphenyl)-3-[3-[4-[(trideuteriomethylamino)methyl]phenyl]isoxazol-5-yl]pyrazin-2-amine]	39 nM
